Active and inactive are the calls of the source. No cut-off for these calls is given here.
Experiments:
[1] = Octanol-aqueous buffer distribution coefficient, log D of the compound at pH 7.4; assay type: physicochemical
[2] = biological target: Lysine-specific demethylase 5A (Homo sapiens, UniProt P29375); test: Inhibition of KDM5A (unknown origin)
[3] = Inhibition of KDM5 in human PC9 cells assessed as demethylation of H3K4Me3; assay type: cell-based; details: PC-9
[4] = Protein binding in human plasma; assay type: ADME, cell-free; details: read-out: PPB (converted)
[5] = Clearance in CD-1 mouse plasma at 1 mg/kg, iv or 5 mg/kg, po; assay type: ADME, organism-based
[6] = Half life in CD-1 mouse at 1 mg/kg, iv or 5 mg/kg, po; assay type: ADME, organism-based; details: in vivo
[7] = Volume of distribution in CD-1 mouse at 1 mg/kg, iv or 5 mg/kg, po; assay type: ADME, organism-based; details: in vivo
[8] = Oral bioavailability in CD-1 mouse at 5 mg/kg; assay type: ADME, organism-based; details: in vivo
[9] = biological target: Lysine-specific demethylase 5B (Homo sapiens, UniProt Q9UGL1); test: Inhibition of KDM5B (unknown origin)
[10] = biological target: Lysine-specific demethylase 5C (Homo sapiens, UniProt P41229); test: Inhibition of KDM5C (unknown origin)
[11] = biological target: Lysine-specific histone demethylase 1A (Homo sapiens) (UniProt O60341); test: Inhibition of KDM1A (unknown origin)
[12] = biological target: T1, Lysine-specific demethylase 2B (Homo sapiens) (UniProt Q8NHM5); test: Inhibition of KDM2B (unknown origin)
T1 sequence (whole entry): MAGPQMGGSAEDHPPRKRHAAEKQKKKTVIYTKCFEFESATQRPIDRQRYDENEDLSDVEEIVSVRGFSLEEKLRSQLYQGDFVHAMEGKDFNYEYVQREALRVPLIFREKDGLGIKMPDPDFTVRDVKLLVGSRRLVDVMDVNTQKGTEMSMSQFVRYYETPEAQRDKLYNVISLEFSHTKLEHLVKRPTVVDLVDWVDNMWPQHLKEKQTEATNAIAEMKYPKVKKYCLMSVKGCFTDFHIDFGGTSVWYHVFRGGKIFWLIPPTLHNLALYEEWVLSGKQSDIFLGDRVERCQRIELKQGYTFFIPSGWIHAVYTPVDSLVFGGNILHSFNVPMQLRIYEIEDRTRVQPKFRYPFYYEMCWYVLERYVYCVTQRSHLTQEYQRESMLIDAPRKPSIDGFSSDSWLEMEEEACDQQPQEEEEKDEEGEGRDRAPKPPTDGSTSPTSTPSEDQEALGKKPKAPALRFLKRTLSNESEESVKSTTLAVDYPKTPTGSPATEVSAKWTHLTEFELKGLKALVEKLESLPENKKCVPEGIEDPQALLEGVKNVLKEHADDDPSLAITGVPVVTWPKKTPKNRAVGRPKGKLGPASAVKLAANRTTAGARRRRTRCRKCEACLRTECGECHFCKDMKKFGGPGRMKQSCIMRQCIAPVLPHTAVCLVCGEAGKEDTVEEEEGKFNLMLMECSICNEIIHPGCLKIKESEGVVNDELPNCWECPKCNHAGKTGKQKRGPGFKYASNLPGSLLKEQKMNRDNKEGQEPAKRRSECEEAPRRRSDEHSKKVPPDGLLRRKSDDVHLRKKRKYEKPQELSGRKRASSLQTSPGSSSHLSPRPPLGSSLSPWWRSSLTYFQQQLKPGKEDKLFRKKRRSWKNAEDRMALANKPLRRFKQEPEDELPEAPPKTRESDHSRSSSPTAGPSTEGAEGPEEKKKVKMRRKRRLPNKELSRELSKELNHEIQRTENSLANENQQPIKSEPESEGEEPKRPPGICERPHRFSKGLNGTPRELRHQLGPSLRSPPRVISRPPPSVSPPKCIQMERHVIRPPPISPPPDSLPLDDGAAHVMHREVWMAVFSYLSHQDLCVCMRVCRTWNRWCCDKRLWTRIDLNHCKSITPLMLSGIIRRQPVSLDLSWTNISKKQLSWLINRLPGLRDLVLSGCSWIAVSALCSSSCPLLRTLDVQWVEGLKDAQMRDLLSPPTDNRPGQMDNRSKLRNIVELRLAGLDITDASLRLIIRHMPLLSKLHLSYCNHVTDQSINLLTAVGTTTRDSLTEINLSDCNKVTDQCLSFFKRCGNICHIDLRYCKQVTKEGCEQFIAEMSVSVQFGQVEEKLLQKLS

[13] = biological target: Lysine-specific demethylase 3B (Homo sapiens) (UniProt Q7LBC6); test: Inhibition of KDM3B (unknown origin)
[14] = biological target: Lysine-specific demethylase 6A (Homo sapiens) (UniProt O15550); test: Inhibition of KDM6A (unknown origin)
[15] = biological target: Histone lysine demethylase PHF8 (Homo sapiens) (UniProt Q9UPP1); test: Inhibition of KDM7B (unknown origin)
[16] = Cmax in mouse at 50 mg/kg, po bid; assay type: ADME, organism-based; parameters: dose 50 mg/kg, route oral; details: in vivo
[17] = Protein binding in mouse plasma; assay type: ADME, cell-free; details: read-out: PPB (converted)
[18] = fCmax in mouse at 50 mg/kg, po bid; assay type: ADME, organism-based; details: in vivo
[19] = Dissociation constant, pKa of the compound; assay type: physicochemical
[20] = Dissociation constant, pKa of the compound at pH 7.4; assay type: physicochemical

Chain of Lysine-specific demethylase 5A (P29375 whole entry): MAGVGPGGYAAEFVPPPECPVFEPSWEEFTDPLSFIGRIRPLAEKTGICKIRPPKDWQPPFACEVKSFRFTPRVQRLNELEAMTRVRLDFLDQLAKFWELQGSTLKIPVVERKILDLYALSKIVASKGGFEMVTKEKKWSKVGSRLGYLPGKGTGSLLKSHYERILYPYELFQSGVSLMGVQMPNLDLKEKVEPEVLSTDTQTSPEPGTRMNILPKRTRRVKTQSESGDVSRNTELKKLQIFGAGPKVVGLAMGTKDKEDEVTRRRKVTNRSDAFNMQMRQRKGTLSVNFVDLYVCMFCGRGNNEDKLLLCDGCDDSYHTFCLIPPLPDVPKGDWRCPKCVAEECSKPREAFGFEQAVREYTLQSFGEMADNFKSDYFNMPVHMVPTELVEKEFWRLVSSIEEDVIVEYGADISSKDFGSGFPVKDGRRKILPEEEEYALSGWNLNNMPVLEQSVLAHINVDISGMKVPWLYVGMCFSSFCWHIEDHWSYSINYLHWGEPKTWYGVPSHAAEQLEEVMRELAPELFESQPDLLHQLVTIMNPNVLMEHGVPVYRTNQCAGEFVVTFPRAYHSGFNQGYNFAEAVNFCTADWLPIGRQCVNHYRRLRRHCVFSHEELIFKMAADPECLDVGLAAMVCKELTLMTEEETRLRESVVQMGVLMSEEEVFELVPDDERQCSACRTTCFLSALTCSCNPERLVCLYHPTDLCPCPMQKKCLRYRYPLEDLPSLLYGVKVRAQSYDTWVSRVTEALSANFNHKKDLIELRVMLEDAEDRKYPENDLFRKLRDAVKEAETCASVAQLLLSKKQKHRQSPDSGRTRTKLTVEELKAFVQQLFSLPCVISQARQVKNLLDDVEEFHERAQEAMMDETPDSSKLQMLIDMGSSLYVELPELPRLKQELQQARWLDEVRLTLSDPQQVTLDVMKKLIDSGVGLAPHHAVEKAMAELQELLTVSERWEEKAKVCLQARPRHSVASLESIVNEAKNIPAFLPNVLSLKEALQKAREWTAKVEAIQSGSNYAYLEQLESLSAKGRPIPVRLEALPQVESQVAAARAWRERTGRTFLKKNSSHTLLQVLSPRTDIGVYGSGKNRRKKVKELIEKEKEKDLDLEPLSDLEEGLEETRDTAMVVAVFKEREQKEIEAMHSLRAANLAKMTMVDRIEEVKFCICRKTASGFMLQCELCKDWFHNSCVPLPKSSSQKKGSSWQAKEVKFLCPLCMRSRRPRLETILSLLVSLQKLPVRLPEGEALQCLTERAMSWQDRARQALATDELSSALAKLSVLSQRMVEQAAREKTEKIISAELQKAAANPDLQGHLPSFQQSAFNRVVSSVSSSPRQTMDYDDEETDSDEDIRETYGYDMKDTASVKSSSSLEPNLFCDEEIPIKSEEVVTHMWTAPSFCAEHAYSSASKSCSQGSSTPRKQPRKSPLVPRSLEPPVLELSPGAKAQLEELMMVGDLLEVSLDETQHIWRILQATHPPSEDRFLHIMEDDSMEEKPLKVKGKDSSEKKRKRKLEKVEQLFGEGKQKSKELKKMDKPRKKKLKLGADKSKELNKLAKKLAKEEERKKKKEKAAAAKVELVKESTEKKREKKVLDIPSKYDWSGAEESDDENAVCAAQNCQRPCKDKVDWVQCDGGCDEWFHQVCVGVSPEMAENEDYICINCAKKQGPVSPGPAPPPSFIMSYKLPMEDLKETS
Chain of Histone lysine demethylase PHF8 (Homo sapiens) (Q9UPP1 whole entry): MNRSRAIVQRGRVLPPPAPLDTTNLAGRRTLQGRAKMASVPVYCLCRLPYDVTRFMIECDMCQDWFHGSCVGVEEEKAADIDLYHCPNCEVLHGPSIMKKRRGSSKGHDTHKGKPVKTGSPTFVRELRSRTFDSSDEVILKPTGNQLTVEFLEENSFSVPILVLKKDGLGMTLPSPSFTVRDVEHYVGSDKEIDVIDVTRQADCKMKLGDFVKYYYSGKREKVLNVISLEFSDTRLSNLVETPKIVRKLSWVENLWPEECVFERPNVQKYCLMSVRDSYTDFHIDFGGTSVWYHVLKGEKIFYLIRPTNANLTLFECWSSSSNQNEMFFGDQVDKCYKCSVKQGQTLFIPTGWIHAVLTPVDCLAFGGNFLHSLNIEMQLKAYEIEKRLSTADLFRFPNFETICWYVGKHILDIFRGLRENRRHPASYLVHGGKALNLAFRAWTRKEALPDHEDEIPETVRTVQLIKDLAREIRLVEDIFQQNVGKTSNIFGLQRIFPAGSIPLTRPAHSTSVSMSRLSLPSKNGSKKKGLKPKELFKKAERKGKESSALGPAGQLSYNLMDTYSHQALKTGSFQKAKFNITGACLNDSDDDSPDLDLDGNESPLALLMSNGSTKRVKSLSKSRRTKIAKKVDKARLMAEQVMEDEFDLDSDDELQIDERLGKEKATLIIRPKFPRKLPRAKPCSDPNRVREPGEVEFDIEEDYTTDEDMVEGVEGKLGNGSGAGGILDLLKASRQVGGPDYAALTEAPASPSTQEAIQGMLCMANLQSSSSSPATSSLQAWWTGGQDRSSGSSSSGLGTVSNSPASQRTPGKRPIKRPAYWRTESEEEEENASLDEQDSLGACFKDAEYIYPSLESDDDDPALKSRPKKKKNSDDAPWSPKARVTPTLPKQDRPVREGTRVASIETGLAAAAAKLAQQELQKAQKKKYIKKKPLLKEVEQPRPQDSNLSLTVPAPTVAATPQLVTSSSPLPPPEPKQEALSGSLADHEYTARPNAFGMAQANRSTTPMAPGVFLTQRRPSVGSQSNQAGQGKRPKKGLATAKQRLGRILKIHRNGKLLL
Chain of Lysine-specific demethylase 5C (P41229 whole entry): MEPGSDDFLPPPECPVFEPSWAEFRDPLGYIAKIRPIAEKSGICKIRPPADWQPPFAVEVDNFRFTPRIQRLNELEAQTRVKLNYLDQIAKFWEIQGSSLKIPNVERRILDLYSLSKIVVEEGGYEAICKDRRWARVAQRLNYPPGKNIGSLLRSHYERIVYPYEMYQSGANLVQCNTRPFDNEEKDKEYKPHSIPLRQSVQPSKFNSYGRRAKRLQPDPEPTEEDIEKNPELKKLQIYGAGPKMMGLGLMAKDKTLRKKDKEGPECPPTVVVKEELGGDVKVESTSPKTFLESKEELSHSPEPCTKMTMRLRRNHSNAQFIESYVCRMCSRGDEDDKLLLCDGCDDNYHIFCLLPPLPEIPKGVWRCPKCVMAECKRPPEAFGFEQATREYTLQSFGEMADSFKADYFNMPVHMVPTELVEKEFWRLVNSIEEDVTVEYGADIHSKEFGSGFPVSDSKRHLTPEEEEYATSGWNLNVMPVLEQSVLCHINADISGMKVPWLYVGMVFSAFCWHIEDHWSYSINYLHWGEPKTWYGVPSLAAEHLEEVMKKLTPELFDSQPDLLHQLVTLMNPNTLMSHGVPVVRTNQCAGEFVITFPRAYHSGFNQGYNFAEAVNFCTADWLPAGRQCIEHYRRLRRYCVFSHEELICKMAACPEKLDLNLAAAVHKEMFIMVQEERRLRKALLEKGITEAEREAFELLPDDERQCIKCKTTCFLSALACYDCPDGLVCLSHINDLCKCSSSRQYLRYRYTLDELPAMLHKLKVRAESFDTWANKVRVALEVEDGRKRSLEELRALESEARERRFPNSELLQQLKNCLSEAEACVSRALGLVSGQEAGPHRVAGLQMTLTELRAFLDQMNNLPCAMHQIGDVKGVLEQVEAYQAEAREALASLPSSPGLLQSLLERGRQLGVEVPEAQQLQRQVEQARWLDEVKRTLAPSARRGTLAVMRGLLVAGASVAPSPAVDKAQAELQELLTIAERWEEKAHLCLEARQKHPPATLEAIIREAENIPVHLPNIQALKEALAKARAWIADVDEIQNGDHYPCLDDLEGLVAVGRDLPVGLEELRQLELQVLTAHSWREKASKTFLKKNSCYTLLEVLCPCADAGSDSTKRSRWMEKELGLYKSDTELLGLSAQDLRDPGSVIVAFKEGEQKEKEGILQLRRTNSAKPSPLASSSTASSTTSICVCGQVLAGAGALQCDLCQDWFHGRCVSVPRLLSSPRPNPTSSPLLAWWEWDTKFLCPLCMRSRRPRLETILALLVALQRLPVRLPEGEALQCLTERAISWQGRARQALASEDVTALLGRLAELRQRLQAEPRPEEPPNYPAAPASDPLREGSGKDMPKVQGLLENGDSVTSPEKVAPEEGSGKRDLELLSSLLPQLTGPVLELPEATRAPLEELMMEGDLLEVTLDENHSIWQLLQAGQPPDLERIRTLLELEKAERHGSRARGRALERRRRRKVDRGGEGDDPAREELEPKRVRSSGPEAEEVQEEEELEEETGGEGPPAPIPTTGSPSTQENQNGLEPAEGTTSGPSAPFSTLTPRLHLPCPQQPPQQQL

SMILES	IC50 [2]	EC50 [3]	also measured
CC(C)c1c(-c2cnn(C3CCC3)c2)[nH]c2c(C#N)cnn2c1=O	11.2 nM	870 nM	logD [1]: 1.3; fraction unbound [4]: 0.004
CC(C)c1c(-c2cnn(C3COC3)c2)[nH]c2c(C#N)cnn2c1=O	15.9 nM	8300 nM	logD [1]: -0.1; fraction unbound [4]: 0.04
COc1cc(-c2[nH]c3c(C#N)cnn3c(=O)c2C(C)C)ccn1	31.6 nM	–	–
COC(=O)c1c(-c2ccccc2)[nH]c2c(C#N)cnn2c1=O	319 nM	–	–
CC(C)c1c(N2CCCCC2)[nH]c2c(C#N)cnn2c1=O	63.2 nM	–	–
CC(C)c1c(-c2cnn(CCC#N)c2)[nH]c2c(C#N)cnn2c1=O	10.1 nM	2900 nM	logD [1]: -0.45; fraction unbound [4]: 0.066
CC(C)c1c[nH]c2c(C#N)cnn2c1=O	28.3 nM	–	–
CC(C)c1c(-c2cccnc2)[nH]c2c(C#N)cnn2c1=O	12.3 nM	9300 nM	–
N#Cc1cnn2c(=O)c(Br)c(-c3ccccc3)[nH]c12	29.3 nM	–	–
Cc1[nH]c2c(C#N)cnn2c(=O)c1C(C)C	9.3 nM	13800 nM	–
C=C(C)c1c(-c2ccccc2)[nH]c2c(C#N)cnn2c1=O	24.7 nM	–	–
N#Cc1cnn2c(=O)c(C3CCC3)c(-c3ccccc3)[nH]c12	9.2 nM	> 30000 nM	–
CC(C)c1c(N(C)C)[nH]c2c(C#N)cnn2c1=O	76.6 nM	–	–
CC(C)c1c(CCc2ccccc2)[nH]c2c(C#N)cnn2c1=O	13.1 nM	> 30000 nM	–
C#CCc1c(-c2ccccc2)[nH]c2c(C#N)cnn2c1=O	21.1 nM	–	–
CC(C)c1c(-c2ccccc2)[nH]c2c(C#N)cnn2c1=O	–	–	pKa [20]: 6
COCCn1cc(-c2[nH]c3c(C#N)cnn3c(=O)c2C(C)C)cn1	10.4 nM	1800 nM	logD [1]: 0.4; fraction unbound [4]: 0.033
CCc1[nH]c2c(C#N)cnn2c(=O)c1C(C)C	9.5 nM	12100 nM	–
C=Cc1c(-c2ccccc2)[nH]c2c(C#N)cnn2c1=O	20.1 nM	–	–

Further lines, with some results ahead:

IC50 [2]	EC50 [3]	SMILES	also measured
28.9 nM	–	CC(C)c1c(-c2cccc(OC(F)(F)F)c2)[nH]c2c(C#N)cnn2c1=O	–
18.2 nM	–	CC(C)c1c(-c2ccc(C(F)(F)F)cc2)[nH]c2c(C#N)cnn2c1=O	–
6.2 nM	6700 nM	CC(C)c1c(-c2ccco2)[nH]c2c(C#N)cnn2c1=O	–
15.5 nM	16400 nM	C=CC(C)c1c(-c2ccccc2)[nH]c2c(C#N)cnn2c1=O (racemic)	–
20.4 nM	–	CC(C)c1c(-c2ccc(Cl)cc2)[nH]c2c(C#N)cnn2c1=O	–
20.3 nM	–	Cc1ccc(-c2[nH]c3c(C#N)cnn3c(=O)c2C(C)C)cc1	–
–	7500 nM	CC(C)c1c(-c2cccc(C(F)(F)F)c2)[nH]c2c(C#N)cnn2c1=O	–
7.9 nM	1300 nM	CC(C)c1c(-c2cnn(C3CC3)c2)[nH]c2c(C#N)cnn2c1=O	logD [1]: 0.74; fraction unbound [4]: 0.008
35.9 nM	–	CC(C)c1c(-c2ccc(OC(F)(F)F)cc2)[nH]c2c(C#N)cnn2c1=O	–
–	2300 nM	CCn1cc(-c2[nH]c3c(C#N)cnn3c(=O)c2C(C)C)cn1	logD [1]: 0.66; fraction unbound [4]: 0.005
15.1 nM	340 nM	CC(C)c1c(-c2cnn(C(C)(C)C)c2)[nH]c2c(C#N)cnn2c1=O	logD [1]: 1.4; fraction unbound [4]: 0.012; clearance [5]: 5 mL/min/kg; half-life [6]: 78 min; Vd [7]: 0.44 L/kg; bioavailability [8]: 100%; IC50 [9]: 4.7 nM; IC50 [10]: 65.5 nM; inhibition [11]: inactive; inhibition [12]: inactive; inhibition [13]: inactive; inhibition [14]: inactive; inhibition [15]: inactive; Cmax [16]: 206 µM; fraction unbound [17]: 0.025; fCmax [18]: 5.2 µM
–	28400 nM	CCC(C)c1c(-c2ccccc2)[nH]c2c(C#N)cnn2c1=O (racemic)	–
11.9 nM	> 30000 nM	CC(C)c1c(Cc2ccccc2)[nH]c2c(C#N)cnn2c1=O	–
18 nM	> 30000 nM	CC(C)c1c(Oc2ccccc2)[nH]c2c(C#N)cnn2c1=O	pKa [19]: 9.8
27.5 nM	> 30000 nM	CC(C)c1c(Nc2ccccc2)[nH]c2c(C#N)cnn2c1=O	pKa [19]: 8.2
12.8 nM	11300 nM	C#CC(C)c1c(-c2ccccc2)[nH]c2c(C#N)cnn2c1=O (racemic)	–
5.3 nM	1200 nM	CC(C)c1c(-c2cn[nH]c2)[nH]c2c(C#N)cnn2c1=O	fraction unbound [4]: 0.026
17.5 nM	–	CC(C)c1c(/C=C/c2ccccc2)[nH]c2c(C#N)cnn2c1=O	–
5.6 nM	1700 nM	CC(C)c1c(-c2cnn(-c3ccccc3)c2)[nH]c2c(C#N)cnn2c1=O	logD [1]: 1.8; fraction unbound [4]: 0.001; clearance [5]: 7.7 mL/min/kg; half-life [6]: 66 min; Vd [7]: 0.63 L/kg; bioavailability [8]: 21.3%
29 nM	–	CC(CO)c1c(-c2ccccc2)[nH]c2c(C#N)cnn2c1=O (configuration not stated)	–
13.8 nM	440 nM	CC(C)c1c(-c2cnn(C(C)C)c2)[nH]c2c(C#N)cnn2c1=O	logD [1]: 0.93; fraction unbound [4]: 0.013; clearance [5]: 15.7 mL/min/kg; half-life [6]: 36.6 min; Vd [7]: 0.54 L/kg; bioavailability [8]: 69.5%
13.3 nM	2000 nM	CC(C)c1c(-c2cnn(C)c2)[nH]c2c(C#N)cnn2c1=O	logD [1]: 0.4; fraction unbound [4]: 0.011; clearance [5]: 59.9 mL/min/kg; half-life [6]: 10.2 min; Vd [7]: 0.6 L/kg; bioavailability [8]: 61.3%
–	> 30000 nM	CC(C)c1c(-c2cncnc2)[nH]c2c(C#N)cnn2c1=O	–

Reference: ChEMBL document CHEMBL4425149, “Lead optimization of a pyrazolo[1,5-a]pyrimidin-7(4H)-one scaffold to identify potent, selective and orally bioavailable KDM5 inhibitors suitable for in vivo biological studies” (Bioorg Med Chem Lett, 2016)
